In patent US6903129B2, “D-proline prodrugs” (Hoffman-La Roche Inc., priority 2001, dated 2005):

What was measured:
[1] = Human liver microsome incubation; type: in vitro ADME; details: for Human microsomes Clearance: intrinsic clearance, human liver microsomes 2.0 mg prot/mL, prodrug 10 μM, 37° C.; for Human microsomes MAB %: maximal achievable bioavailability (1−E), extrapolated from human microsomal clearance
Procedure: (§1) Test Description for Microsome Incubation
(§2) Rat and human liver microsome incubations were conducted on-line in a CTC PAL autosampler in order to avoid any degradation of the prodrugs during the work-up. Incubation mixtures consisted of liver microsomes (rat 1.0 mg prot/mL or human 2.0 mg prot/mL), prodrug 10 μM, MgCl2 (3.3 mM), and an NADPH regenerating system consisting of glucose-6-phosphate dehydrogenase, NADPH and glucose-6-phosphate equivalent to 1 mM NADPH) in a total volume of 1.0 mL of potassium phosphate buffer 100 mM pH 7.4.
(§3) Reactions were initiated by addition of the NADPH regenerating system at 37° C. At time 1, 5, 9, 13, 17, 21, 25, and 29 min a 5 μL aliquot was directly analysed on a HPLC-MS/MS system comprising of a HP 1100 quaternary pump with degasser and a PE-Sciex API-2000 MS/MS spectrometer. The analytical column was a Waters Symmetry Shield RP8 (2.1*50 mm with a […] particle size). A polarity non linear gradient from phase A (MeOH/Ac. Form.1% 20/80) to phase B (MeOH) was applied for a total run time of 2 minutes at a flow rate of 0.25 mL/min. The PE-Sciex API-2000 MS/MS spectrometer was used for detection of both the prodrugs and the parent compound (R)-1-[6-[(R)-2-carboxy-pyrrolidin-1-yl]-6-oxo-hexanoyl]-pyrrolidine-2-carboxylic acid. In vivo metabolic clearance was predicted according to published procedures (Houston, J. B., Biochem. Pharmacol., 47:1469-1479, 1994). In brief, the intrinsic clearance (Clearance, Table 1) was calculated from the measured in vitro half-life taking into account incubation volume and microsomal protein used for the in vitro incubation. The intrinsic clearance was expressed in terms of ul/min/mg microsomal protein. For in vivo extrapolations, the hepatic extraction ratio (E) was calculated. Reported below is the %MAB value (maximal achievable bioavailability), which is equal to 1−E.

[2] = Stability of the prodrugs in plasma samples; type: in vitro ADME, rat; details: half-life (50% conversion of the prodrug), 10 μM, 37° C.
Procedure: Stability of the Prodrugs in Blood and Plasma Samples
Plasma and blood samples from different species were merged with equimolar amounts (10 μM) of prodrug and parent drug in DMSO and incubated for different time intervals (up to 60 min.) at 37° C. The reaction was stopped by protein precipitation with acetonitrile followed by centrifugation (20 min., 1800 g at 10° C.). The supernatant was immediately subjected to analysis.
The concentration of formed parent compound was determined by LC-MS. The chromatographic system was comprised of a trapping column (X-Terra™ MS C8 3.5 μm, 10×2.1 mm i.d., Waters) and an analytical column (Symmetry C8 3.5 μm, 50×2.1 mm i.d., Waters) connected to a SCIEX API 2000 triplequadrupole mass spectrometer equipped with a turbo ion spray interface. The mobile phases were 1% aqueous formic acid and acetonitrile. The parent compound together with its deuterium labelled internal standard was enriched on the trapping column and eluted with a fast gradient. The retention time of (R)-1-[6-[(R)-2-carboxy-pyrrolidin-1-yl]-6-oxo-hexanoyl]-pyrrolidine-2-carboxylic acid was ˜2.1 min. The effluent (300 μl min^−1) was passed to the turbo ion spray interface without splitting and was nebulized using nitrogen. Multiple reaction monitoring (MRM) in positive mode Was used for mass spectrometric detection. The transitions for the parent were 341.1 [M+H]^+ to 226.1 [Fragment]^+ and for the internal standard 349.1 [M+H]^+ to 234.1 [Fragment]^+. The results were expressed as half-lifes (50% conversion of the prodrug), using the data of the prodrug at time-point 0 min. as […].

[3] = Rat liver microsome incubation; type: in vitro ADME; details: for Rat microsomes Clearance: intrinsic clearance, rat liver microsomes 1.0 mg prot/mL, prodrug 10 μM, 37° C.; for Rat microsomes MAB %: maximal achievable bioavailability (1−E), extrapolated from rat microsomal clearance
Procedure: as §1, §2, §3

Structure (SMILES) | Human microsomes Clearance [1] | Human microsomes MAB % [1] | Rat plasma tl/2 hours [2] | Rat microsomes Clearance [3] | Rat microsomes MAB % [3]
NC(=O)COC(=O)[C@H]1CCCN1C(=O)CCCCC(=O)N1CCC[C@@H]1C(=O)OCC(N)=O [Example 1, (R)-1-[6-[(R)-2-Carbamoylmethoxycarbonyl-pyrrolidin-1-yl]-6-oxo-hexanoyl]-pyrrolidine-2-carboxylic acid carbamoylmethyl ester] | 1 ul/min/mg microsomal protein | 93% | 0.4 h | 5 ul/min/mg microsomal protein | 88%
C=CCNC(=O)COC(=O)[C@H]1CCCN1C(=O)CCCCC(=O)N1CCC[C@@H]1C(=O)OCC(=O)NCC=C [Example 2, (R)-1-[6-[(R)-2-Allylcarbamoylmethoxycarbonyl-pyrrolidin-1-yl]-6-oxo-hexanoyl]-pyrrolidine-2-carboxylic acid allylcarbamoylmethyl ester] | 64 ul/min/mg microsomal protein | 20% | low | 18 ul/min/mg microsomal protein | 66%
CC(C)NC(=O)COC(=O)[C@H]1CCCN1C(=O)CCCCC(=O)N1CCC[C@@H]1C(=O)OCC(=O)NC(C)C [Example 3, (R)-1-{6-[(R)-2-(Isopropylcarbamoyl-methoxycarbonyl)-pyrrolidin-1-yl]-6-oxo-hexanoyl}-pyrrolidine-2-carboxylic acid isopropylcarbamoyl-methyl ester] | 16 ul/min/mg microsomal protein | 50% | low | 82 ul/min/mg microsomal protein | 30%
CC(C)(C)NC(=O)COC(=O)[C@H]1CCCN1C(=O)CCCCC(=O)N1CCC[C@@H]1C(=O)OCC(=O)NC(C)(C)C [Example 4, (R)-1-{6-[(R)-2-(tert-Butylcarbamoyl-methoxycarbonyl)-pyrrolidin-1-yl]-6-oxo-hexanoyl}-pyrrolidine-2-carboxylic acid tert-butylcarbamoyl-methyl ester] | 57 ul/min/mg microsomal protein | 22% | low | 625 ul/min/mg microsomal protein | 5%
O=C(COC(=O)[C@H]1CCCN1C(=O)CCCCC(=O)N1CCC[C@@H]1C(=O)OCC(=O)NC1CC1)NC1CC1 [Example 5, (R)-1-{6-[(R)-2-(Cyclopropylcarbamoyl-methoxycarbonyl)-pyrrolidin-1-yl]-6-oxo-hexanoyl}-pyrrolidine-2-carboxylic acid cyclopropylcarbamoyl-methyl ester] | 8 ul/min/mg microsomal protein | 67% | low | 36 ul/min/mg microsomal protein | 50%
CN(C)C(=O)COC(=O)[C@H]1CCCN1C(=O)CCCCC(=O)N1CCC[C@@H]1C(=O)OCC(=O)N(C)C [Example 6, (R)-1-{6-[(R)-2-(Dimethylcarbamoyl-methoxycarbonyl)-pyrrolidin-1-yl]-6-oxo-hexanoyl}-pyrrolidine-2-carboxylic acid dimethylcarbamoyl-methyl ester] | 1 ul/min/mg microsomal protein | 96% | 0.8 h | 7 ul/min/mg microsomal protein | 84%
CCN(CC)C(=O)COC(=O)[C@H]1CCCN1C(=O)CCCCC(=O)N1CCC[C@@H]1C(=O)OCC(=O)N(CC)CC [Example 7, (R)-1-{6-[(R)-2-(Diethylcarbamoyl-methoxycarbonyl)-pyrrolidin-1-yl]-6-oxo-hexanoyl}-pyrrolidine-2-carboxylic acid diethylcarbamoyl-methyl ester] | 2 ul/min/mg microsomal protein | 90% | 0.2 h | 9 ul/min/mg microsomal protein | 73%
COC(=O)[C@H]1CCCN1C(=O)CCCCC(=O)N1CCC[C@@H]1C(=O)OC [Example 10, (R)-1-{6-[(R)-2-Methoxycarbonyl-pyrrolidin-1-yl]-6-oxo-hexanoyl}-pyrrolidine-2-carboxylic acid methyl ester] | 2 ul/min/mg microsomal protein | 90% | 1.3 h | 9 ul/min/mg microsomal protein | 79%
CCOC(=O)[C@H]1CCCN1C(=O)CCCCC(=O)N1CCC[C@@H]1C(=O)OCC [Example 11, (R)-1-{6-[(R)-2-Ethoxycarbonyl-pyrrolidin-1-yl]-6-oxo-hexanoyl}-pyrrolidine-2-carboxylic acid ethyl ester] | 5 ul/min/mg microsomal protein | 77% | 0.4 h | 46 ul/min/mg microsomal protein | 44%
CCCOC(=O)[C@H]1CCCN1C(=O)CCCCC(=O)N1CCC[C@@H]1C(=O)OCCC [Example 12, (R)-1-{6-Oxo-6-[(R)-2-propoxycarbonyl-pyrrolidin-1-yl]-hexanoyl}-pyrrolidine-2-carboxylic acid propyl ester] | 73 ul/min/mg microsomal protein | 18% |  | 253 ul/min/mg microsomal protein | 12%
